According to patent US20230265524A1, “IMMUNOGENIC RETROELEMENTS AND THEIR USE IN CANCER THERAPY” (UNIVERSITY HEALTH NETWORK, priority 2020, published 2023):

Tests used:
Format in all cases: cell-based, human
[1] = system: ADAR1; experiment: qPCR analysis of ADAR1 mRNA level and isoforms
Protocol: C, qPCR analysis of total ADAR1 mRNA level after treatment with 5-AZA-CdR (300 nM, for 5 days) or transfection with 100 ng ml-1 poly(I:C) over a course of 24 days. Cells were washed out at day 5 and seeded in drug-free medium. Data are mean±s.e.m.****P<0.0001, Sidak-corrected two-way ANOVA.
A, ADAR1 isoforms (p110 and p150) relative expression analysed by qPCR. LACZ denotes ADAR1WT; PIC denotes 100 ng/ml poly (I:C) for 5 days; AZA denotes 300 nM 5-AZA-CdR for 5 days). Data are mean±s.e.m. (n=3 from three independent experiments). ***P<0.001, ****P<0.0001, Tukey-corrected two-way ANOVA.
To test this hypothesis, we first determined if ADAR1 depletion affects dsRNA formation by IR-Alus in untreated patient-derived CRCs. We generated ADAR1 knock-down CRCs using two different hairpin RNAs (ADAR1^KDA/B) and confirmed depletion of both the constitutively expressed (p110) and interferon-inducible (p150) ADAR1 isoforms (FIG. 8A). […] To determine if MDA5 ligands also increase upon ADAR1 depletion, we performed the MDA5 protection assay followed by RNA-Seq, as above. […] Again, these immunogenic Alus were primarily IR-Alu pairs unidirectionally transcribed in either the sense (+/+) or antisense (−/−) direction and induced upon ADAR1 depletion (FIG. 9C-J).
Next, we tested whether epigenetic therapy can induce and activate ADAR1 editing activity.

[2] = system: MDA5; experiment: MDA5-protection assay followed by RNA sequencing
Protocol: A-C, Percentage of non-repeats and several families of Repetitive Elements in the total cytoplasmic fraction (‘Total CytoRNA’) and in the MDA5-protected fraction (‘MDA5-protected’) at the mock-treated baseline condition (A) and after 5-AZA-CdR treatment at 300 nM for 5 days, p<2.2e-16 (B). Treatment-induced immunogenic RNAs' refers to transcripts present in 5-AZA-CdR treated condition but not present in the baseline mock-treated condition (i.e. induced by the treatment), p<2.2e-16 (C). Each plot is the average percentage of two replicates. P-values represent the Fisher Exact test for enrichment of SINEs and depletion of non-repeats in immunogenic RNAs (5-AZA-CdR) and Treatment-induced immunogenic RNAs as compared to the MDA5-protected baseline immunogenic RNAs.
D-E, Counts of the expressed Alus in terms of the Log10 Fold change of their MDA5-protected expression over their Total CytoRNA expression. IR-Alus that are MDA5 dsRNA agonists have positive values on the x-axis. […] The color code represents Alus making Inverted Repeats pairs (gray) and Non-IR pairs (black) for Baseline immunogenic RNAs (n=187 Non-IR Alus and 1,602 IR-Alus) (D) and for the Treatment-induced immunogenic RNAs (n=992 Non-IR Alus and 5,199 IR-Alus) (E).
A, Venn-diagram showing the IR-Alu pairs at the Baseline (n=1,040), Immunogenic (5-AZA-CdR) (n=4,482) and Treatment-induced (n=3,687) conditions.
Viral mimicry response to epigenetic therapy is dependent on activation of the MDA5 pattern recognition receptor by endogenous dsRNAs^1,6,8. Therefore, to directly identify drug-induced immunogenic retroelements, we performed an MDA5-protection assay^19, followed by RNA sequencing. […] In contrast, only 1.71% of MDA5-protected RNAs in mock-treated samples were LTRs and 6.40% were LINEs (FIG. 2A). For DNMTi-treated samples, only 1.81% were LTRs and 7.56% were LINEs (FIG. 2B).
Then, to identify the immunogenic retroelements induced only by DNMTi treatment (“Treatment-Induced immunogenic RNAs”), we excluded those that were expressed in both the mock- and DNMTi-treated samples (FIG. 3A). Alu retroelements represented 88.72% of all MDA5-protected RNAs present only in DNMTi treated samples (“Treatment-Induced immunogenic RNAs”) (FIG. 2C). Treatment-induced immunogenic RNAs also included non-repeats (5.15%), LINEs (3.86%) and LTRs elements (1.37%) (FIG. 2C). Overall, our results reveal that while many dsRNA species are induced after DNMTi, Alu elements, but not LTRs/ERVs as previously assumed^1,2,4-6,20, are the major source of immunogenic dsRNA induced upon epigenetic therapy.
To uncover the molecular mechanisms of how repetitive elements generate immunogenic dsRNA, we examined all repeats in MDA5-protected transcripts and searched for repeat pairs within a 3 Kb window. […] Moreover, MDA5-protected RNA contained higher levels of IR-Alus compared to non-IR (direct repeat) Alus (FIG. 2D-E). The expression of baseline IR-Alus was maintained but not enhanced after 5-AZA-CdR treatment (FIG. 2D, FIG. 3D) while treatment-induced IR-Alu hybrids became highly expressed in the MDA5-protected RNA only after treatment with 5-AZA-CdR (FIG. 2E, FIG. 3E). […] Moreover, the majority of IR-Alu pairs were unidirectionally transcribed either in the sense (both repeats in the positive strand: “+/+”) or antisense (both repeats in the negative strand: “−/−”) direction in both baseline (FIG. 2H) and treatment-induced dsRNA (FIG. 2I).

[3] = system: patient-derived CRC cells; experiment: survival of patient-derived CRC cells, luminescence dose-response; conditions: in vitro, ADAR1-knockdown vs wild-type patient-derived CRC cells
Protocol: A, Survival of wild-type ADAR1 (black) and ADAR1-knockdown (gray) patient-derived CRC cells after treatment with 5-AZA-CdR. Luminescence signal was normalized, and dose-response curves and EC50 values were calculated using a nonlinear regression curve fit.
Finally, we sought to investigate whether ADAR1 inhibition would synergize with epigenetic therapy to increase the anti-tumour response. […] To examine the potential synergy in vivo, we injected ADAR1^KDA/B or wildtype patient-derived xenograft CRC cells subcutaneously into immune-deficient NOD.Cg-Prkdc (NSG) mice, and treated the mice with 5-AZA-CdR or vehicle (PBS) (FIG. 12B and FIG. 13A). […] Thus, ADAR1 inhibition in human cancer cells profoundly sensitizes tumours to 5-AZA-CdR treatment in vivo.

[4] = MDA5-protected RNAs present only in DNMTi treated samples
[5] = MDA5-protected, induced by DNMTi

With `Nc1ncn([C@H]2C[C@H](O)[C@@H](CO)O2)c(=O)n1` [5-AZA-CdR] the ADAR1 expression ([1]; patient-derived CRCs, 300 nM for 5 days) was “up-regulated ADAR1 expression”, the “duration of ADAR1 up-regulation after drug withdrawal” value ([1]; washed out at day 5, drug-free medium, 24 days course) was “sustained for about fourteen days after drug withdrawal” and the “number of IR-Alu pairs, Immunogenic (5-AZA-CdR) condition” value ([2]; Baseline n=1,040) was 4,482. For the same compound, the “LTRs in MDA5-protected RNAs” value ([2]; DNMTi-treated samples, mock-treated 1.71%) was 1.81%, the “LINEs in MDA5-protected RNAs” value ([2]; DNMTi-treated samples, mock-treated 6.40%) was 7.56% and the “Alus in the MDA5-protected RNA” value ([2]; Immunogenic RNAs (5-AZA-CdR), 300 nM for 5 days, mock-treated 53.03%) was 72.33%. For the same compound, the “Alu retroelements among Treatment-Induced immunogenic RNAs” value [2, 4] was 88.72%, the “LINEs among Treatment-induced immunogenic RNAs” value [2, 4] was 3.86% and the “LTRs elements among Treatment-induced immunogenic RNAs” value [2, 4] was 1.37%. The “non-repeats among Treatment-induced immunogenic RNAs” value [2, 4] was 5.15%, the “treatment-induced IR-Alu pairs within intergenic regions” value [2, 5] was 16% and the “treatment-induced IR-Alu pairs within introns” value [2, 5] was 70%. For the same compound, the “number of IR-Alu pairs, Treatment-induced condition” value ([2]; present after 5-AZA-CdR, not at baseline) was 3,687 and the “reduction of EC50 by ADAR1 knock-down” value [3] was “four to six-fold reduction”.
